Each structure is given as a SMILES string.

For the experiment, the system named is FLK-1 receptor. In words: FLK-1 Assay (cellular/catalytic ELISA, VEGF-stimulated phosphotyrosine). Type of experiment: cell-based. The arrangement: concentration or dose not given beside the values. The procedure, abridged:
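NIH3T3 C7#3 cells engineered to express Flk-1 were serum-starved overnight (0.1% FBS), then exposed to compound for 2 h at 37 °C (final dilution 1:200, 0.5% DMSO) before VEGF stimulation. Lysates captured on anti-FLK-1 antiserum plates; phosphotyrosine detected by UB40 antibody/POD-ABTS ELISA versus untreated controls.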

With `CCOC(=O)c1c(C)[nH]c(C=C2C(=O)Nc3c(Br)cc(Br)c(C)c32)c1C` [10718/H02], the “Flk Kinase % Inhibition (P.110)” value was −1.4%. Under `COc1cc(Br)c(O)c(C=C2C(=O)Nc3c(Br)cc(Br)c(C)c32)c1` [10718/H03] stands −5.0%.

In the case of `Cc1c(Br)cc(Br)c2c1C(=Cc1ccc3ccccc3c1O)C(=O)N2` [10718/H04], the “Flk Kinase % Inhibition (P.110)” value is on record as −5.7%. For the compound `CCOC(=O)CCc1c(C(=O)OCC)[nH]c(C=C2C(=O)Nc3c(Br)cc(Br)c(C)c32)c1CC(=O)OCC` [10718/H05], the “Flk Kinase % Inhibition (P.110)” value is 1.0%. As for `CCOC(=O)c1cc(C=C2C(=O)Nc3c(Br)cc(Br)c(C)c32)oc1C` [10718/H06], the “Flk Kinase % Inhibition (P.110)” value was determined as 18.2%. Under `COC(=O)c1[nH]c(C)c(C=C2C(=O)Nc3c(Br)cc(Br)c(C)c32)c1C(=O)OC` [10718/H07] stands −3.0%. To `Cc1c(Br)cc(Br)c2c1C(=Cc1ccc(Cl)c([N+](=O)[O-])c1)C(=O)N2` [10718/H08] belongs −0.5%; to `CCOc1cccc(C=C2C(=O)Nc3c(Br)cc(Br)cc32)c1O` [10734/A02], 4.1%. Take `O=C1Nc2c(Br)cc(Br)cc2C1=Cc1cc(Cl)cc(Cl)c1O` [10734/A03]: the “Flk Kinase % Inhibition (P.110)” value worked out at 10.1%. As to `O=C1Nc2c(Br)cc(Br)cc2C1=Cc1cc(Cl)ccc1O` [10734/A04], the “Flk Kinase % Inhibition (P.110)” value stood at 0.6%. To `CCN(CC)c1ccc(C=C2C(=O)Nc3c(Br)cc(Br)cc32)c(O)c1` [10734/A05] belongs 9.1%; to `O=C1Nc2c(Br)cc(Br)cc2C1=Cc1ccc([N+](=O)[O-])cc1` [10734/A06], −6.4%. Regarding `O=C1Nc2c(Br)cc(Br)cc2C1=Cc1cc(Br)cc(Br)c1O` [10734/A07], the “Flk Kinase % Inhibition (P.110)” value was −9.4%. Under `O=C1Nc2c(Br)cc(Br)cc2C1=Cc1cccc(F)c1O` [10734/A08] stands 0.1%; under `O=C1Nc2c(Br)cc(Br)cc2C1=Cc1ccc(O)c(Br)c1` [10734/A09], −7.9%. Under `CC(C)(C)c1ccc(C=C2C(=O)Nc3c(Br)cc(Br)cc32)cc1` [10734/A10] stands 4.4%; under `O=C1Nc2c(Br)cc(Br)cc2C1=Cc1ccc(Br)s1` [10734/A11], 6.3%; under `CCOc1cccc(C=C2C(=O)Nc3ccc(I)cc32)c1O` [10734/B02], 8.5%. Take `O=C1Nc2ccc(I)cc2C1=Cc1cc(Cl)cc(Cl)c1O` [10734/B03]: the “Flk Kinase % Inhibition (P.110)” value came out at 21.7%. To `O=C1Nc2ccc(I)cc2C1=Cc1cc(Cl)ccc1O` [10734/B04] belongs 2.8%. To `CCN(CC)c1ccc(C=C2C(=O)Nc3ccc(I)cc32)c(O)c1` [10734/B05] belongs −2.3%; to `O=C1Nc2ccc(I)cc2C1=Cc1ccc([N+](=O)[O-])cc1` [10734/B06], −0.9%; to `O=C1Nc2ccc(I)cc2C1=Cc1cc(Br)cc(Br)c1O` [10734/B07], 9.1%. Under `O=C1Nc2ccc(I)cc2C1=Cc1cccc(F)c1O` [10734/B08] stands −0.5%; under `O=C1Nc2ccc(I)cc2C1=Cc1ccc(O)c(Br)c1` [10734/B09], −32.3%; under `CC(C)(C)c1ccc(C=C2C(=O)Nc3ccc(I)cc32)cc1` [10734/B10], 15.7%.

For `O=C1Nc2ccc(I)cc2C1=Cc1ccc(Br)s1` [10734/B11], the “Flk Kinase % Inhibition (P.110)” value was found to be 12.6%.

As for `CCOc1cccc(C=C2C(=O)Nc3ccc(Br)c(C)c32)c1O` [10734/C02], the “Flk Kinase % Inhibition (P.110)” value is −3.9%. Turning to `Cc1c(Br)ccc2c1C(=Cc1cc(Cl)cc(Cl)c1O)C(=O)N2` [10734/C03], the “Flk Kinase % Inhibition (P.110)” value is −5.6%. `Cc1c(Br)ccc2c1C(=Cc1cc(Cl)ccc1O)C(=O)N2` [10734/C04]: the “Flk Kinase % Inhibition (P.110)” value is −37.6%. To `CCN(CC)c1ccc(C=C2C(=O)Nc3ccc(Br)c(C)c32)c(O)c1` [10734/C05] belongs −10.3%.

Regarding `Cc1c(Br)ccc2c1C(=Cc1ccc([N+](=O)[O-])cc1)C(=O)N2` [10734/C06], the “Flk Kinase % Inhibition (P.110)” value is listed as −1.7%. Under `Cc1c(Br)ccc2c1C(=Cc1cc(Br)cc(Br)c1O)C(=O)N2` [10734/C07] stands −2.7%; under `Cc1c(Br)ccc2c1C(=Cc1cccc(F)c1O)C(=O)N2` [10734/C08], −34.2%. To `Cc1c(Br)ccc2c1C(=Cc1ccc(O)c(Br)c1)C(=O)N2` [10734/C09] belongs −13.3%; to `Cc1c(Br)ccc2c1C(=Cc1ccc(C(C)(C)C)cc1)C(=O)N2` [10734/C10], 10.1%; to `Cc1c(Br)ccc2c1C(=Cc1ccc(Br)s1)C(=O)N2` [10734/C11], 6.3%. Under `CCOc1cccc(C=C2C(=O)Nc3ccc(S(=O)(=O)NC)cc32)c1O` [10734/D02] stands −11.5%; under `CNS(=O)(=O)c1ccc2c(c1)C(=Cc1cc(Cl)cc(Cl)c1O)C(=O)N2` [10734/D03], 17.4%. For the compound `CNS(=O)(=O)c1ccc2c(c1)C(=Cc1cc(Cl)ccc1O)C(=O)N2` [10734/D04], the “Flk Kinase % Inhibition (P.110)” value is reported as 6.1%. Turning to `CCN(CC)c1ccc(C=C2C(=O)Nc3ccc(S(=O)(=O)NC)cc32)c(O)c1` [10734/D05], the “Flk Kinase % Inhibition (P.110)” value is 2.4%. Under `CNS(=O)(=O)c1ccc2c(c1)C(=Cc1ccc([N+](=O)[O-])cc1)C(=O)N2` [10734/D06] stands 0.0%; under `CNS(=O)(=O)c1ccc2c(c1)C(=Cc1cc(Br)cc(Br)c1O)C(=O)N2` [10734/D07], 14.7%. To `CNS(=O)(=O)c1ccc2c(c1)C(=Cc1cccc(F)c1O)C(=O)N2` [10734/D08] belongs 2.5%; to `CNS(=O)(=O)c1ccc2c(c1)C(=Cc1ccc(O)c(Br)c1)C(=O)N2` [10734/D09], −11.6%. Regarding `CNS(=O)(=O)c1ccc2c(c1)C(=Cc1ccc(C(C)(C)C)cc1)C(=O)N2` [10734/D10], the “Flk Kinase % Inhibition (P.110)” value is on record as 11.1%. With `CNS(=O)(=O)c1ccc2c(c1)C(=Cc1ccc(Br)s1)C(=O)N2` [10734/D11], the “Flk Kinase % Inhibition (P.110)” value is 9.8%. In the case of `CCOc1cccc(C=C2C(=O)Nc3ccc(S(=O)(=O)Nc4ccc(C(F)(F)F)cc4)cc32)c1O` [10734/E02], the “Flk Kinase % Inhibition (P.110)” value amounted to 7.9%. With `O=C1Nc2ccc(S(=O)(=O)Nc3ccc(C(F)(F)F)cc3)cc2C1=Cc1cc(Cl)cc(Cl)c1O` [10734/E03], the “Flk Kinase % Inhibition (P.110)” value came to 26.9%. Under `O=C1Nc2ccc(S(=O)(=O)Nc3ccc(C(F)(F)F)cc3)cc2C1=Cc1cc(Cl)ccc1O` [10734/E04] stands 10.7%; under `CCN(CC)c1ccc(C=C2C(=O)Nc3ccc(S(=O)(=O)Nc4ccc(C(F)(F)F)cc4)cc32)c(O)c1` [10734/E05], 10.6%; under `O=C1Nc2ccc(S(=O)(=O)Nc3ccc(C(F)(F)F)cc3)cc2C1=Cc1ccc([N+](=O)[O-])cc1` [10734/E06], 28.4%. Under `O=C1Nc2ccc(S(=O)(=O)Nc3ccc(C(F)(F)F)cc3)cc2C1=Cc1cc(Br)cc(Br)c1O` [10734/E07] stands 27.9%; under `O=C1Nc2ccc(S(=O)(=O)Nc3ccc(C(F)(F)F)cc3)cc2C1=Cc1cccc(F)c1O` [10734/E08], 26.6%. Turning to `O=C1Nc2ccc(S(=O)(=O)Nc3ccc(C(F)(F)F)cc3)cc2C1=Cc1ccc(O)c(Br)c1` [10734/E09], the “Flk Kinase % Inhibition (P.110)” value was 8.0%. To `CC(C)(C)c1ccc(C=C2C(=O)Nc3ccc(S(=O)(=O)Nc4ccc(C(F)(F)F)cc4)cc32)cc1` [10734/E10] belongs 18.5%. To `O=C1Nc2ccc(S(=O)(=O)Nc3ccc(C(F)(F)F)cc3)cc2C1=Cc1ccc(Br)s1` [10734/E11] belongs 19.2%; to `CCOc1cccc(C=C2C(=O)Nc3ccc(S(=O)(=O)N4CCOCC4)cc32)c1O` [10734/F02], 6.2%; to `O=C1Nc2ccc(S(=O)(=O)N3CCOCC3)cc2C1=Cc1cc(Cl)cc(Cl)c1O` [10734/F03], 4.2%.

`O=C1Nc2ccc(S(=O)(=O)N3CCOCC3)cc2C1=Cc1cc(Cl)ccc1O` [10734/F04]: the “Flk Kinase % Inhibition (P.110)” value is given as −2.6%.

Regarding `CCN(CC)c1ccc(C=C2C(=O)Nc3ccc(S(=O)(=O)N4CCOCC4)cc32)c(O)c1` [10734/F05], the “Flk Kinase % Inhibition (P.110)” value is given as 9.8%. As to `O=C1Nc2ccc(S(=O)(=O)N3CCOCC3)cc2C1=Cc1ccc([N+](=O)[O-])cc1` [10734/F06], the “Flk Kinase % Inhibition (P.110)” value turned out to be 11.0%. As to `O=C1Nc2ccc(S(=O)(=O)N3CCOCC3)cc2C1=Cc1cc(Br)cc(Br)c1O` [10734/F07], the “Flk Kinase % Inhibition (P.110)” value was found to be 6.6%. To `O=C1Nc2ccc(S(=O)(=O)N3CCOCC3)cc2C1=Cc1cccc(F)c1O` [10734/F08] belongs 4.8%; to `O=C1Nc2ccc(S(=O)(=O)N3CCOCC3)cc2C1=Cc1ccc(O)c(Br)c1` [10734/F09], −3.7%; to `CC(C)(C)c1ccc(C=C2C(=O)Nc3ccc(S(=O)(=O)N4CCOCC4)cc32)cc1` [10734/F10], 14.8%.

In the case of `O=C1Nc2ccc(S(=O)(=O)N3CCOCC3)cc2C1=Cc1ccc(Br)s1` [10734/F11], the “Flk Kinase % Inhibition (P.110)” value is listed as 13.3%. To `CCOc1cccc(C=C2C(=O)Nc3ccc(CCCl)cc32)c1O` [10734/G02] belongs 1.5%; to `O=C1Nc2ccc(CCCl)cc2C1=Cc1cc(Cl)cc(Cl)c1O` [10734/G03], 18.7%; to `O=C1Nc2ccc(CCCl)cc2C1=Cc1cc(Cl)ccc1O` [10734/G04], −1.1%.

The record behind these values is patent US20020026053A1, “Novel 3-(substituted) -2- indolinones compounds and use thereof as inhibitors of protein kinase activity” (priority 1997, published 2002).
